Laboratory results as given in US20250026778A1 (TIUMBIO CO., LTD., priority 2021, published 2025).

These compounds were tested against T1, his-galectin-3 (Homo sapiens, UniProt P17931) (assay: TR-FRET assay (in vitro galectin-3 binding inhibitory activity test)). Details: Table 1; compound at 20 μM; 60 nM his-galectin-3, 15 nM biotin-ASF; read-out: % Inhibitory activity (at 20 μM).
T1 construct: purchased Abcam
Experimental: TR-FRET Assay (In Vitro Galectin-3 Binding Inhibitory Activity Test)
TR-FRET assay was performed in ½ Area Plate-96 (PerkinElmer). Final concentrations of components in the assay were 60 nM his-galectin-3 (Abcam), 15 nM biotin-ASF (Axxora), 2 nM Mab anti-6×His Tb (Cisbio) and 20 nM SA-d2 (Cisbio). The reaction was performed in a buffer containing 25 mM HEPES, 100 mM NaCl, 0.005% Tween 20 and 0.05% BSA. 20 μL his-galectin-3 and 1 μL compound were mixed first, and then 20 μL biotin-ASF, 5 μL anti-His Tb and 5 μL SA-d2 were added in order. After incubation for at least 3.5 hours at RT, TR-FRET signals were measured at 615/665 nm […] wavelengths using a VICTOR Nivo (PerkinElmer). The positive control used DMSO instead of the compound, and the negative control excluded ASF-biotin. N-acetyl-D-lactosamine (LacNAc), an endogenous ligand unit of galectin-3, was evaluated together as a control substance to compare galectin-3 binding inhibitory activity.

T1 sequence (P17931 whole entry): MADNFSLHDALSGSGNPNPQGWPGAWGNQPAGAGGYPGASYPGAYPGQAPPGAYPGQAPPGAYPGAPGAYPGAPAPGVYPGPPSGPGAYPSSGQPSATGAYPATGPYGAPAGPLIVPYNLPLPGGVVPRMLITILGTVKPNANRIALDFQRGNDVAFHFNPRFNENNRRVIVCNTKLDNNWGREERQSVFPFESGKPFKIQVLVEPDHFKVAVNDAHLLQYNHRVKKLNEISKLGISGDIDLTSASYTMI

inhibition at 20 µM | Compound
25 to 50% | OC[C@H]1O[C@@]2(CCCO2)[C@H](O)[C@@H](n2cc(-c3cc(F)c(F)c(F)c3)nn2)[C@H]1O [Compound A12, (5S,7R,8R,9S,10R)-7-(hydroxymethyl)-9-(4-(3,4,5-trifluorophenyl)-1H-1,2,3-triazol-1-yl)-1,6-dioxaspiro[4.5]decane-8,10-diol]
25 to 50% | OC[C@H]1O[C@@]2(CCCO2)[C@H](OCc2ccccc2)[C@@H](n2cc(-c3cc(F)c(F)c(F)c3)nn2)[C@H]1O [Compound A13, (5S,7R,8R,9S,10R)-10-(benzyloxy)-7-(hydroxymethyl)-9-(4-(3,4,5-trifluorophenyl)-1H-1,2,3-triazol-1-yl)-1,6-dioxaspiro[4.5]decan-8-ol]
25 to 50% | OC[C@H]1O[C@@]2(CCCO2)[C@H](OCc2cccnc2)[C@@H](n2cc(-c3cc(F)c(F)c(F)c3)nn2)[C@H]1O [Compound A16, (5S,7R,8R,9S,10R)-7-(hydroxymethyl)-10-(pyridin-3-ylmethoxy)-9-(4-(3,4,5-trifluorophenyl)-1H-1,2,3-triazol-1-yl)-1,6-dioxaspiro[4.5]decan-8-ol acetate]
25 to 50% | OC[C@H]1O[C@@]2(CCCO2)[C@H](OCc2ccccn2)[C@@H](n2cc(-c3cc(F)c(F)c(F)c3)nn2)[C@H]1O [Compound A17, (5S,7R,8R,9S,10R)-7-(hydroxymethyl)-10-(pyridin-2-ylmethoxy)-9-(4-(3,4,5-trifluorophenyl)-1H-1,2,3-triazol-1-yl)-1,6-dioxaspiro[4.5]decan-8-ol]
25 to 50% | OC[C@H]1O[C@@]2(CCCO2)[C@H](OCc2ccncc2)[C@@H](n2cc(-c3cc(F)c(F)c(F)c3)nn2)[C@H]1O [Compound A18, (5S,7R,8R,9S,10R)-7-(hydroxymethyl)-10-(pyridin-4-ylmethoxy)-9-(4-(3,4,5-trifluorophenyl)-1H-1,2,3-triazol-1-yl)-1,6-dioxaspiro[4.5]decan-8-ol acetate]
25 to 50% | OC[C@H]1O[C@@]2(CCCO2)[C@H](OCc2ccc(C(F)(F)F)o2)[C@@H](n2cc(-c3cc(F)c(F)c(F)c3)nn2)[C@H]1O [Compound A19, (5S,7R,8R,9S,10R)-7-(hydroxymethyl)-10-((5-(trifluoromethyl)furan-2-yl)methoxy)-9-(4-(3,4,5-trifluorophenyl)-1H-1,2,3-triazol-1-yl)-1,6-dioxaspiro[4.5]decan-8-ol]
25 to 50% | O=C(CO[C@@H]1[C@@H](n2cc(-c3cc(F)c(F)c(F)c3)nn2)[C@@H](O)[C@@H](CO)O[C@@]12CCCO2)c1ccccc1 [Compound A20, 2-(((5S,7R,8R,9S,10R)-8-hydroxy-7-(hydroxymethyl)-9-(4-(3,4,5-trifluorophenyl)-1H-1,2,3-triazol-1-yl)-1,6-dioxaspiro[4.5]decan-10-yl)oxy)-1-phenylethanone]
50 to 75% | O=C(O)CO[C@@H]1[C@@H](n2cc(-c3cc(F)c(F)c(F)c3)nn2)[C@@H](O)[C@@H](CO)O[C@@]12CCCO2 [Compound A21, 2-(((5S,7R,8R,9S,10R)-8-hydroxy-7-(hydroxymethyl)-9-(4-(3,4,5-trifluorophenyl)-1H-1,2,3-triazol-1-yl)-1,6-dioxaspiro[4.5]decan-10-yl)oxy)acetic acid]
25 to 50% | O=C(CO[C@@H]1[C@@H](n2cc(-c3cc(F)c(F)c(F)c3)nn2)[C@@H](O)[C@@H](CO)O[C@@]12CCCO2)N1CCC(O)CC1 [Compound A22, 2-(((5S,7R,8R,9S,10R)-8-hydroxy-7-(hydroxymethyl)-9-(4-(3,4,5-trifluorophenyl)-1H-1,2,3-triazol-1-yl)-1,6-dioxaspiro[4.5]decan-10-yl)oxy)-1-(4-hydroxypiperidin1-yl)ethanone]
25 to 50% | O=C(CO[C@@H]1[C@@H](n2cc(-c3cc(F)c(F)c(F)c3)nn2)[C@@H](O)[C@@H](CO)O[C@@]12CCCO2)Nc1ccccc1 [Compound A23, 2-(((5S,7R,8R,9S,10R)-8-hydroxy-7-(hydroxymethyl)-9-(4-(3,4,5-trifluorophenyl)-1H-1,2,3-triazol-1-yl)-1,6-dioxaspiro[4.5]decan-10-yl)oxy)-N-phenylacetamide]
25 to 50% | OC[C@H]1O[C@@]2(CCCCO2)[C@H](O)[C@@H](n2cc(-c3cc(F)c(F)c(F)c3)nn2)[C@H]1O [Compound A24, (2R,3R,4S,5R,6S)-2-(hydroxymethyl)-4-(4-(3,4,5-trifluorophenyl)-1H-1,2,3-triazol-1-yl)-1,7-dioxaspiro[5.5]undecane-3,5-diol]
25 to 50% | OC[C@H]1O[C@@]2(CCCCO2)[C@H](OCc2ccccc2)[C@@H](n2cc(-c3cc(F)c(F)c(F)c3)nn2)[C@H]1O [Compound A25, (2R,3R,4S,5R,6S)-5-(benzyloxy)-2-(hydroxymethyl)-4-(4-(3,4,5-trifluorophenyl)-1H-1,2,3-triazol-1-yl)-1,7-dioxaspiro[5.5]undecan-3-ol]
25 to 50% | O=S1(=O)CCC(CO[C@@H]2[C@@H](n3cc(-c4cc(F)c(F)c(F)c4)nn3)[C@@H](O)[C@@H](CO)O[C@@]23CCCO3)CC1 [Compound A26, 4-((((5S,7R,8R,9S,10R)-8-hydroxy-7-(hydroxymethyl)-9-(4-(3,4,5-trifluorophenyl)-1H-1,2,3-triazol-1-yl)-1,6-dioxaspiro[4.5]decan-10-yl)oxy)methyl)tetrahydro-2H-thiopyran 1,1-dioxide]
25 to 50% | OC[C@H]1O[C@@]2(CCCO2)[C@H](OCC(F)F)[C@@H](n2cc(-c3cc(F)c(F)c(F)c3)nn2)[C@H]1O [Compound A27, (5S,7R,8R,9S,10R)-10-(2,2-difluoroethoxy)-7-(hydroxymethyl)-9-(4-(3,4,5-trifluorophenyl)-1H-1,2,3-triazol-1-yl)-1,6-dioxaspiro[4.5]decan-8-ol]
25 to 50% | Cn1nnc(-c2ccc(CO[C@@H]3[C@@H](n4cc(-c5cc(F)c(F)c(F)c5)nn4)[C@@H](O)[C@@H](CO)O[C@@]34CCCO4)cc2)n1 [Compound A28, (5S,7R,8R,9S,10R)-7-(hydroxymethyl)-10-((4-(2-methyl-2H-tetrazol-5-yl)benzyl)oxy)-9-(4-(3,4,5-trifluorophenyl)-1H-1,2,3-triazol-1-yl)-1,6-dioxaspiro[4.5]decan-8-ol]
< 25% | O=C(CO[C@@H]1[C@@H](n2cc(-c3cc(F)c(F)c(F)c3)nn2)[C@@H](O)[C@@H](CO)O[C@@]12CCCO2)Nc1ccc(Cl)nn1 [Compound A29, N-(6-chloropyridazin-3-yl)-2-(((5S,7R,8R,9S,10R)-8-hydroxy-7-(hydroxymethyl)-9-(4-(3,4,5-trifluorophenyl)-1H-1,2,3-triazol-1-yl)-1,6-dioxaspiro[4.5]decan-10-yl)oxy)acetamide]
< 25% | OC[C@H]1O[C@]2(OCC[C@H]2c2ccccc2)[C@H](O)[C@@H](n2cc(-c3cc(F)c(F)c(F)c3)nn2)[C@H]1O [Compound A30, (4S,5S,7R,8R,9S,10R)-7-(hydroxymethyl)-4-phenyl-9-(4-(3,4,5-trifluorophenyl)-1H-1,2,3-triazol-1-yl)-1,6-dioxaspiro[4.5]decane-8,10-diol]
25 to 50% | O=C(O[C@@H]1[C@@H](n2cc(-c3cc(F)c(F)c(F)c3)nn2)[C@@H](O)[C@@H](CO)O[C@@]12CCCO2)c1ccccc1 [Compound A31, (5S,7R,8R,9S,10R)-8-hydroxy-7-(hydroxymethyl)-9-(4-(3,4,5-trifluorophenyl)-1H-1,2,3-triazol-1-yl)-1,6-dioxaspiro[4.5]decan-10-yl benzoate]
25 to 50% | COC(=O)CO[C@@H]1[C@@H](n2cc(-c3cc(F)c(F)c(F)c3)nn2)[C@@H](O)[C@@H](CO)O[C@@]12CCCCO2 [Compound A32, methyl-2-(((2R,3R,4S,5R,6S)-3-hydroxy-2-(hydroxymethyl)-4-(4-(3,4,5-trifluorophenyl)-1H-1,2,3-triazol-1-yl)-1,7-dioxaspiro[5.5]undecan-5-yl)oxy)acetate]
25 to 50% | O=C(CO[C@@H]1[C@@H](n2cc(-c3cc(F)c(F)c(F)c3)nn2)[C@@H](O)[C@@H](CO)O[C@@]12CCCO2)N1CC(F)(F)C1 [Compound A33, 1-(3,3-difluoroazetidin-1-yl)-2-(((5S,7R,8R,9S,10R)-8-hydroxy-7-(hydroxymethyl)-9-(4-(3,4,5-trifluorophenyl)-1H-1,2,3-triazol-1-yl)-1,6-dioxaspiro[4.5]decan-10-yl)oxy)ethanone]
25 to 50% | O=C(CO[C@@H]1[C@@H](n2cc(-c3cc(F)c(F)c(F)c3)nn2)[C@@H](O)[C@@H](CO)O[C@@]12CCCO2)N1CC(O)C1 [Compound A34, 2-(((5S,7R,8R,9S,10R)-8-hydroxy-7-(hydroxymethyl)-9-(4-(3,4,5-trifluorophenyl)-1H-1,2,3-triazol-1-yl)-1,6-dioxaspiro[4.5]decan-10-yl)oxy)-1-(3-hydroxyazetidin-1-yl)ethanone]
25 to 50% | OC[C@H]1O[C@@]2(CCCO2)[C@H](OCc2ccc3c(c2)OCO3)[C@@H](n2cc(-c3cc(F)c(F)c(F)c3)nn2)[C@H]1O [Compound A35, (5S,7R,8R,9S,10R)-10-(benzo[d][1,3]dioxol-5-ylmethoxy)-7-(hydroxymethyl)-9-(4-(3,4,5-trifluorophenyl)-1H-1,2,3-triazol-1-yl)-1,6-dioxaspiro[4.5]decan-8-ol]

Same assay, conditions: Table 3, found values; compound at 20 μM; 60 nM his-galectin-3, 15 nM biotin-ASF; read-out: % Inhibitory activity (at 20 μM)

inhibition at 20 µM | Compound
28.1% | O=C(CO[C@@H]1[C@@H](n2cc(-c3cc(F)c(F)c(F)c3)nn2)[C@@H](O)[C@@H](CO)O[C@@]12CCCO2)N1CCC(O)CC1 [Compound A22, 2-(((5S,7R,8R,9S,10R)-8-hydroxy-7-(hydroxymethyl)-9-(4-(3,4,5-trifluorophenyl)-1H-1,2,3-triazol-1-yl)-1,6-dioxaspiro[4.5]decan-10-yl)oxy)-1-(4-hydroxypiperidin1-yl)ethanone]
36.7% | COC(=O)CO[C@@H]1[C@@H](n2cc(-c3cc(F)c(F)c(F)c3)nn2)[C@@H](O)[C@@H](CO)O[C@@]12CCCCO2 [Compound A32, methyl-2-(((2R,3R,4S,5R,6S)-3-hydroxy-2-(hydroxymethyl)-4-(4-(3,4,5-trifluorophenyl)-1H-1,2,3-triazol-1-yl)-1,7-dioxaspiro[5.5]undecan-5-yl)oxy)acetate]
